In PubChem BioAssay AID1918957 (Molecular Pharmacology Branch, DTP, NCI, 2023):

Test system: NCI-H1876 complex spheroid viability
Test: Anticancer human tumor NCI-H1876 cell line growth inhibition [LSD1];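 further: spheroids exposed to compounds for one week before readout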;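 on viability, T/C: 100% = DMSO vehicle-treated spheroids so lower means fewer viable cells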
Settings: for IC50: curve of first compound; for viability, T/C: stronger effect = lower value
In short: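 Complex spheroids of tumor cells with HUVEC and human MSCs, exposed to iadademstat combined with other agents. Each agent tested in half-log steps from near clinical Cmax (else 10 microM top), DMSO ≤0.25%.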

[1] = second compound 0.1 µM, first compound 0.0316 µM
[2] = second compound 0.1 µM, first compound 0.1 µM
[3] = second compound 0.1 µM, first compound 0.316 µM
[4] = second compound 0.1 µM, first compound 1 µM
[5] = second compound 0.1 µM, first compound 3.16 µM
[6] = second compound 0.1 µM, first compound 10 µM
[7] = second compound 0.316 µM, first compound 0.0316 µM
[8] = second compound 0.316 µM, first compound 0.1 µM
[9] = second compound 0.316 µM, first compound 0.316 µM
[10] = second compound 0.316 µM, first compound 1 µM
[11] = second compound 0.316 µM, first compound 3.16 µM
[12] = second compound 0.316 µM, first compound 10 µM
[13] = second compound 1 µM, first compound 0.0316 µM
[14] = second compound 1 µM, first compound 0.1 µM
[15] = second compound 1 µM, first compound 0.316 µM
[16] = second compound 1 µM, first compound 1 µM
[17] = second compound 1 µM, first compound 3.16 µM
[18] = second compound 1 µM, first compound 10 µM
[19] = second compound 3.16 µM, first compound 0.0316 µM
[20] = second compound 3.16 µM, first compound 0.1 µM
[21] = second compound 3.16 µM, first compound 0.316 µM
[22] = second compound 3.16 µM, first compound 1 µM
[23] = second compound 3.16 µM, first compound 3.16 µM
[24] = second compound 3.16 µM, first compound 10 µM
[25] = second compound 10 µM, first compound 0.0316 µM
[26] = second compound 10 µM, first compound 0.1 µM
[27] = second compound 10 µM, first compound 0.316 µM
[28] = second compound 10 µM, first compound 1 µM
[29] = second compound 10 µM, first compound 3.16 µM
[30] = second compound 10 µM, first compound 10 µM
[31] = second compound 0.1 µM, first compound 0.00949 µM
[32] = second compound 0.1 µM, first compound 0.03 µM
[33] = second compound 0.1 µM, first compound 0.0949 µM
[34] = second compound 0.1 µM, first compound 0.3 µM
[35] = second compound 0.316 µM, first compound 0.00949 µM
[36] = second compound 0.316 µM, first compound 0.03 µM
[37] = second compound 0.316 µM, first compound 0.0949 µM
[38] = second compound 0.316 µM, first compound 0.3 µM
[39] = second compound 1 µM, first compound 0.00949 µM
[40] = second compound 1 µM, first compound 0.03 µM
[41] = second compound 1 µM, first compound 0.0949 µM
[42] = second compound 1 µM, first compound 0.3 µM
[43] = second compound 3.16 µM, first compound 0.00949 µM
[44] = second compound 3.16 µM, first compound 0.03 µM
[45] = second compound 3.16 µM, first compound 0.0949 µM
[46] = second compound 3.16 µM, first compound 0.3 µM
[47] = second compound 10 µM, first compound 0.00949 µM
[48] = second compound 10 µM, first compound 0.03 µM
[49] = second compound 10 µM, first compound 0.0949 µM
[50] = second compound 10 µM, first compound 0.3 µM

CC1(C)CCC(CN2CCN(c3ccc(C(=O)NS(=O)(=O)c4ccc(NCC5CCOCC5)c([N+](=O)[O-])c4)c(Oc4cnc5[nH]ccc5c4)c3)CC2)=C(c2ccc(Cl)cc2)C1 + NC1CC1c1ccc(-c2cccc(O)c2)cc1
IC50 (second compound 0.1 µM): 2080 nM | IC50 (second compound 0.316 µM): 2080 nM | IC50 (second compound 1 µM): 2170 nM | IC50 (second compound 3.16 µM): 2060 nM | IC50 (second compound 10 µM): 1920 nM | viability, T/C [1]: 111% | viability, T/C [2]: 110% | viability, T/C [3]: 117% | viability, T/C [4]: 108% | viability, T/C [5]: 16.6% | viability, T/C [6]: 6.77% | viability, T/C [7]: 97.1% | viability, T/C [8]: 85.9% | viability, T/C [9]: 122% | viability, T/C [10]: 110% | viability, T/C [11]: 19.3% | viability, T/C [12]: 7.99% | viability, T/C [13]: 99.5% | viability, T/C [14]: 103% | viability, T/C [15]: 105% | viability, T/C [16]: 111% | viability, T/C [17]: 23.3% | viability, T/C [18]: 7.5% | viability, T/C [19]: 113% | viability, T/C [20]: 122% | viability, T/C [21]: 105% | viability, T/C [22]: 99.8% | viability, T/C [23]: 20.6% | viability, T/C [24]: 8.68% | viability, T/C [25]: 112% | viability, T/C [26]: 120% | viability, T/C [27]: 110% | viability, T/C [28]: 89.2% | viability, T/C [29]: 19.8% | viability, T/C [30]: 6.33%

CC1COCCN1c1cc(C2(S(C)(=N)=O)CC2)nc(-c2ccnc3[nH]ccc23)n1 (stereo not given) + NC1CC1c1ccc(-c2cccc(O)c2)cc1
IC50 (second compound 0.1 µM): 6860 nM | IC50 (second compound 0.316 µM): 6540 nM | IC50 (second compound 1 µM): 6880 nM | IC50 (second compound 3.16 µM): 6240 nM | IC50 (second compound 10 µM): 5610 nM | viability, T/C [1]: 110% | viability, T/C [2]: 114% | viability, T/C [3]: 112% | viability, T/C [4]: 111% | viability, T/C [5]: 94.4% | viability, T/C [6]: 28.4% | viability, T/C [7]: 119% | viability, T/C [8]: 111% | viability, T/C [9]: 113% | viability, T/C [10]: 118% | viability, T/C [11]: 88.5% | viability, T/C [12]: 27.5% | viability, T/C [13]: 124% | viability, T/C [14]: 119% | viability, T/C [15]: 118% | viability, T/C [16]: 111% | viability, T/C [17]: 96.1% | viability, T/C [18]: 28% | viability, T/C [19]: 114% | viability, T/C [20]: 126% | viability, T/C [21]: 120% | viability, T/C [22]: 111% | viability, T/C [23]: 78.4% | viability, T/C [24]: 30.3% | viability, T/C [25]: 112% | viability, T/C [26]: 112% | viability, T/C [27]: 114% | viability, T/C [28]: 99.8% | viability, T/C [29]: 70.8% | viability, T/C [30]: 29.4%

CCN(c1cc(-c2ccc(CN3CCOCC3)cc2)cc(C(=O)NCc2c(C)cc(C)[nH]c2=O)c1C)C1CCOCC1 + NC1CC1c1ccc(-c2cccc(O)c2)cc1
IC50 (second compound 0.1 µM): > 3000 nM | IC50 (second compound 0.316 µM): > 3000 nM | IC50 (second compound 1 µM): > 3000 nM | IC50 (second compound 3.16 µM): > 3000 nM | IC50 (second compound 10 µM): > 3000 nM | viability, T/C [31]: 110% | viability, T/C [32]: 109% | viability, T/C [33]: 110% | viability, T/C [34]: 99.6% | viability, T/C (second compound 0.1 µM, first compound 0.949 µM): 86.6% | viability, T/C (second compound 0.1 µM, first compound 3 µM): 54.8% | viability, T/C [35]: 102% | viability, T/C [36]: 106% | viability, T/C [37]: 102% | viability, T/C [38]: 94.1% | viability, T/C (second compound 0.316 µM, first compound 0.949 µM): 77.3% | viability, T/C (second compound 0.316 µM, first compound 3 µM): 54.1% | viability, T/C [39]: 111% | viability, T/C [40]: 112% | viability, T/C [41]: 104% | viability, T/C [42]: 102% | viability, T/C (second compound 1 µM, first compound 0.949 µM): 88.2% | viability, T/C (second compound 1 µM, first compound 3 µM): 60% | viability, T/C [43]: 109% | viability, T/C [44]: 108% | viability, T/C [45]: 107% | viability, T/C [46]: 97.5% | viability, T/C (second compound 3.16 µM, first compound 0.949 µM): 83.8% | viability, T/C (second compound 3.16 µM, first compound 3 µM): 57.8% | viability, T/C [47]: 106% | viability, T/C [48]: 99.9% | viability, T/C [49]: 111% | viability, T/C [50]: 100% | viability, T/C (second compound 10 µM, first compound 0.949 µM): 79.9% | viability, T/C (second compound 10 µM, first compound 3 µM): 55.3%

Cn1ncnc1C1c2n[nH]c(=O)c3cc(F)cc(c23)NC1c1ccc(F)cc1 (stereo not given) + NC1CC1c1ccc(-c2cccc(O)c2)cc1
IC50 (second compound 0.1 µM): > 100 nM | IC50 (second compound 0.316 µM): > 100 nM | IC50 (second compound 1 µM): > 100 nM | IC50 (second compound 3.16 µM): > 100 nM | IC50 (second compound 10 µM): > 100 nM | viability, T/C (second compound 0.1 µM, first compound 0.000316 µM): 112% | viability, T/C (second compound 0.1 µM, first compound 0.001 µM): 113% | viability, T/C (second compound 0.1 µM, first compound 0.00316 µM): 111% | viability, T/C (second compound 0.1 µM, first compound 0.01 µM): 97.9% | viability, T/C [1]: 92% | viability, T/C [2]: 90% | viability, T/C (second compound 0.316 µM, first compound 0.000316 µM): 108% | viability, T/C (second compound 0.316 µM, first compound 0.001 µM): 106% | viability, T/C (second compound 0.316 µM, first compound 0.00316 µM): 110% | viability, T/C (second compound 0.316 µM, first compound 0.01 µM): 97.4% | viability, T/C [7]: 107% | viability, T/C [8]: 90.1% | viability, T/C (second compound 1 µM, first compound 0.000316 µM): 108% | viability, T/C (second compound 1 µM, first compound 0.001 µM): 115% | viability, T/C (second compound 1 µM, first compound 0.00316 µM): 108% | viability, T/C (second compound 1 µM, first compound 0.01 µM): 106% | viability, T/C [13]: 96.2% | viability, T/C [14]: 87.8% | viability, T/C (second compound 3.16 µM, first compound 0.000316 µM): 109% | viability, T/C (second compound 3.16 µM, first compound 0.001 µM): 110% | viability, T/C (second compound 3.16 µM, first compound 0.00316 µM): 102% | viability, T/C (second compound 3.16 µM, first compound 0.01 µM): 104% | viability, T/C [19]: 90.2% | viability, T/C [20]: 92.9% | viability, T/C (second compound 10 µM, first compound 0.000316 µM): 107% | viability, T/C (second compound 10 µM, first compound 0.001 µM): 102% | viability, T/C (second compound 10 µM, first compound 0.00316 µM): 95.5% | viability, T/C (second compound 10 µM, first compound 0.01 µM): 96.7% | viability, T/C [25]: 89.7% | viability, T/C [26]: 78.8%

Nc1ncn(C2CC(O)C(CO)S2)c(=O)n1 (stereo not given) + NC1CC1c1ccc(-c2cccc(O)c2)cc1
IC50 (second compound 0.1 µM): > 300 nM | IC50 (second compound 0.316 µM): > 300 nM | IC50 (second compound 1 µM): > 300 nM | IC50 (second compound 3.16 µM): 289 nM | IC50 (second compound 10 µM): > 300 nM | viability, T/C (second compound 0.1 µM, first compound 0.000949 µM): 115% | viability, T/C (second compound 0.1 µM, first compound 0.003 µM): 111% | viability, T/C [31]: 99.4% | viability, T/C [32]: 91.2% | viability, T/C [33]: 71% | viability, T/C [34]: 51.3% | viability, T/C (second compound 0.316 µM, first compound 0.000949 µM): 120% | viability, T/C (second compound 0.316 µM, first compound 0.003 µM): 110% | viability, T/C [35]: 99.7% | viability, T/C [36]: 86.4% | viability, T/C [37]: 73.1% | viability, T/C [38]: 54.4% | viability, T/C (second compound 1 µM, first compound 0.000949 µM): 110% | viability, T/C (second compound 1 µM, first compound 0.003 µM): 106% | viability, T/C [39]: 103% | viability, T/C [40]: 90.1% | viability, T/C [41]: 79.4% | viability, T/C [42]: 54.8% | viability, T/C (second compound 3.16 µM, first compound 0.000949 µM): 106% | viability, T/C (second compound 3.16 µM, first compound 0.003 µM): 103% | viability, T/C [43]: 104% | viability, T/C [44]: 89% | viability, T/C [45]: 72.1% | viability, T/C [46]: 49.1% | viability, T/C (second compound 10 µM, first compound 0.000949 µM): 107% | viability, T/C (second compound 10 µM, first compound 0.003 µM): 100% | viability, T/C [47]: 97.2% | viability, T/C [48]: 96.3% | viability, T/C [49]: 69.2% | viability, T/C [50]: 50.4%
